Measured values reported in PubChem BioAssay (NCI).
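These data come from cells grown in 96-well plates and exposed to compound for 48 hours at five concentrations. GI50 is the concentration that inhibits growth by half. At the TGI there is no net growth.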

Key:
Test in all cases: inhibition of tumour cell growth, NCI panel, 48 h
DU-145 prostate = system: DU-145 prostate
SF-295 CNS = system: SF-295 CNS
T-47D breast = system: T-47D breast
RXF 393 renal = system: RXF 393 renal
CAKI-1 renal = system: CAKI-1 renal
SK-MEL-28 melanoma = system: SK-MEL-28 melanoma
NCI-H522 lung = system: NCI-H522 lung
SNB-19 CNS = system: SNB-19 CNS
HCT-15 colon = system: HCT-15 colon
BT-549 breast = system: BT-549 breast
PC-3 prostate = system: PC-3 prostate
LOX IMVI melanoma = system: LOX IMVI melanoma
MOLT-4 leukemia = system: MOLT-4 leukemia
KM12 colon = system: KM12 colon
MDA-MB-435 = system: MDA-MB-435
HL-60(TB) leukemia = system: HL-60(TB) leukemia
OVCAR-3 ovarian = system: OVCAR-3 ovarian
786-0 renal = system: 786-0 renal
A549 NSCLC = system: A549 NSCLC
CCRF-CEM leukemia = system: CCRF-CEM leukemia
MALME-3M melanoma = system: MALME-3M melanoma
A498 renal = system: A498 renal
NCI-H226 lung = system: NCI-H226 lung
HCC-2998 colon = system: HCC-2998 colon
K-562 leukemia = system: K-562 leukemia
ACHN renal = system: ACHN renal
SNB-75 CNS = system: SNB-75 CNS
HOP-62 NSCLC = system: HOP-62 NSCLC
MDA-MB-231 breast = system: MDA-MB-231 breast
SK-OV-3 ovarian = system: SK-OV-3 ovarian
SW-620 colon = system: SW-620 colon
UACC-62 melanoma = system: UACC-62 melanoma
TK-10 renal = system: TK-10 renal
COLO 205 colon = system: COLO 205 colon
NCI-H23 lung = system: NCI-H23 lung
NCI-H460 lung = system: NCI-H460 lung
HT29 colon = system: HT29 colon
NCI/ADR-RES ovarian = system: NCI/ADR-RES ovarian
U251 CNS = system: U251 CNS
SR leukemia = system: SR leukemia
SK-MEL-5 melanoma = system: SK-MEL-5 melanoma
MCF7 breast = system: MCF7 breast
UACC-257 melanoma = system: UACC-257 melanoma
UO-31 renal = system: UO-31 renal
RPMI-8226 leukemia = system: RPMI-8226 leukemia
HOP-92 NSCLC = system: HOP-92 NSCLC
SK-MEL-2 melanoma = system: SK-MEL-2 melanoma
HS 578T breast = system: HS 578T breast
HCT-116 colon = system: HCT-116 colon
M14 melanoma = system: M14 melanoma
SN12C renal = system: SN12C renal
SF-268 CNS = system: SF-268 CNS
OVCAR-4 ovarian = system: OVCAR-4 ovarian
IGROV1 ovarian = system: IGROV1 ovarian
OVCAR-8 ovarian = system: OVCAR-8 ovarian
OVCAR-5 ovarian = system: OVCAR-5 ovarian
SF-539 CNS = system: SF-539 CNS

Compound: COc1cc[nH]c1/C=C1\C(=O)Nc2ccccc21
- GI50 (DU-145 prostate): 9.37 µM
- TGI (DU-145 prostate): > 25 µM
- GI50 (SF-295 CNS): > 25 µM
- TGI (SF-295 CNS): > 25 µM
- GI50 (T-47D breast): 4.05 µM
- TGI (T-47D breast): > 25 µM
- GI50 (RXF 393 renal): 5.33 µM
- TGI (RXF 393 renal): > 25 µM
- GI50 (CAKI-1 renal): 1.04 µM
- TGI (CAKI-1 renal): > 11.5 µM
- GI50 (SK-MEL-28 melanoma): 16 µM
- TGI (SK-MEL-28 melanoma): > 25 µM
- GI50 (NCI-H522 lung): 12.7 µM
- TGI (NCI-H522 lung): > 25 µM
- GI50 (SNB-19 CNS): > 25 µM
- TGI (SNB-19 CNS): > 25 µM
- GI50 (HCT-15 colon): 4.85 µM
- TGI (HCT-15 colon): > 25 µM
- GI50 (BT-549 breast): 7.98 µM
- TGI (BT-549 breast): > 25 µM
- GI50 (PC-3 prostate): 8.78 µM
- TGI (PC-3 prostate): > 25 µM
- GI50 (LOX IMVI melanoma): 7.68 µM
- TGI (LOX IMVI melanoma): > 25 µM
- GI50 (MOLT-4 leukemia): 11 µM
- TGI (MOLT-4 leukemia): > 25 µM
- GI50 (KM12 colon): 0.948 µM
- TGI (KM12 colon): > 25 µM
- GI50 (MDA-MB-435): 9.01 µM
- TGI (MDA-MB-435): > 25 µM
- GI50 (HL-60(TB) leukemia): 6.58 µM
- TGI (HL-60(TB) leukemia): > 25 µM
- GI50 (OVCAR-3 ovarian): > 21.5 µM
- TGI (OVCAR-3 ovarian): > 25 µM
- GI50 (786-0 renal): 15.9 µM
- TGI (786-0 renal): > 25 µM
- GI50 (A549 NSCLC): 11.1 µM
- TGI (A549 NSCLC): > 25 µM
- GI50 (CCRF-CEM leukemia): 13.1 µM
- TGI (CCRF-CEM leukemia): > 25 µM
- GI50 (MALME-3M melanoma): 9.88 µM
- TGI (MALME-3M melanoma): > 25 µM
- GI50 (A498 renal): 5.34 µM
- TGI (A498 renal): > 25 µM
- GI50 (NCI-H226 lung): 7.14 µM
- TGI (NCI-H226 lung): > 25 µM
- GI50 (HCC-2998 colon): > 20.7 µM
- TGI (HCC-2998 colon): > 25 µM
- GI50 (K-562 leukemia): 16.9 µM
- TGI (K-562 leukemia): > 25 µM
- GI50 (ACHN renal): 3.5 µM
- TGI (ACHN renal): > 25 µM
- GI50 (SNB-75 CNS): 5.9 µM
- TGI (SNB-75 CNS): > 25 µM
- GI50 (HOP-62 NSCLC): > 19.3 µM
- TGI (HOP-62 NSCLC): > 25 µM
- GI50 (MDA-MB-231 breast): 4.87 µM
- TGI (MDA-MB-231 breast): > 25 µM
- GI50 (SK-OV-3 ovarian): 8.14 µM
- TGI (SK-OV-3 ovarian): > 25 µM
- GI50 (SW-620 colon): 7.24 µM
- TGI (SW-620 colon): > 25 µM
- GI50 (UACC-62 melanoma): 8.58 µM
- TGI (UACC-62 melanoma): > 25 µM
- GI50 (TK-10 renal): 6.71 µM
- TGI (TK-10 renal): > 25 µM
- GI50 (COLO 205 colon): 14.1 µM
- TGI (COLO 205 colon): > 25 µM
- GI50 (NCI-H23 lung): 7.7 µM
- TGI (NCI-H23 lung): > 25 µM
- GI50 (NCI-H460 lung): 8.85 µM
- TGI (NCI-H460 lung): > 25 µM
- GI50 (HT29 colon): 12.3 µM
- TGI (HT29 colon): > 25 µM
- GI50 (NCI/ADR-RES ovarian): 15.5 µM
- TGI (NCI/ADR-RES ovarian): > 25 µM
- GI50 (U251 CNS): 4.17 µM
- TGI (U251 CNS): > 25 µM
- GI50 (SR leukemia): 6.44 µM
- TGI (SR leukemia): > 22.7 µM
- GI50 (SK-MEL-5 melanoma): 10.9 µM
- TGI (SK-MEL-5 melanoma): > 25 µM
- GI50 (MCF7 breast): 5.79 µM
- TGI (MCF7 breast): > 25 µM
- GI50 (UACC-257 melanoma): 17.3 µM
- TGI (UACC-257 melanoma): > 25 µM
- GI50 (UO-31 renal): 1.69 µM
- TGI (UO-31 renal): 24.6 µM
- GI50 (RPMI-8226 leukemia): 14.5 µM
- TGI (RPMI-8226 leukemia): > 25 µM
- GI50 (HOP-92 NSCLC): 4.34 µM
- TGI (HOP-92 NSCLC): > 21 µM
- GI50 (SK-MEL-2 melanoma): 3.55 µM
- TGI (SK-MEL-2 melanoma): 15.7 µM
- GI50 (HS 578T breast): 5.91 µM
- TGI (HS 578T breast): > 25 µM
- GI50 (HCT-116 colon): 5.66 µM
- TGI (HCT-116 colon): > 25 µM
- GI50 (M14 melanoma): 4.98 µM
- TGI (M14 melanoma): > 25 µM
- GI50 (SN12C renal): 7.36 µM
- TGI (SN12C renal): > 25 µM
- GI50 (SF-268 CNS): 11.2 µM
- TGI (SF-268 CNS): > 25 µM
- GI50 (OVCAR-4 ovarian): 8.02 µM
- TGI (OVCAR-4 ovarian): > 25 µM
- GI50 (IGROV1 ovarian): 8.48 µM
- TGI (IGROV1 ovarian): > 25 µM
- GI50 (OVCAR-8 ovarian): 14.2 µM
- TGI (OVCAR-8 ovarian): > 25 µM
- GI50 (OVCAR-5 ovarian): 15.3 µM
- TGI (OVCAR-5 ovarian): > 25 µM
- GI50 (SF-539 CNS): 7.02 µM
- TGI (SF-539 CNS): > 25 µM
